Measured values from patent US20240174622A1, “COMPOUND AND RADIOACTIVE LABELING COMPOUND” (NIHON MEDI-PHYSICS CO., LTD., priority 2021, published 2024).

Experiments:
[1] = system: LNCaP tumor-transplanted mouse; assay: Internal radioactivity distribution using LNCaP tumor-transplanted mouse; type: in vivo
Method: (§1) The animal test was performed in compliance with the guidelines of Kyoto University Animal Experiment Committee. Male CB17/IcrJcl-Prkdc^scid mice were purchased from CLEA Japan, Inc. The animals were kept under 12 h/12 h, day/night cycle conditions and fed ad libitum with food and water. LNCaP cells (1.0×10^7 cells/mouse) or PC-3 cells (1.0×10^7 cells/mouse) were suspended in a mixture of PBS and Matrigel manufactured by Corning Life Sciences (1:1, 150 μL) and the suspension was subcutaneously transplanted to the right shoulder of mice under isoflurane anesthesia. Thereafter, the mice were kept for 40 to 60 days.
LNCaP or PC-3 tumor-implanted mice were administered saline solutions (185 kBq, 100 μL) of [^111In]In-PSMA-DA1 or [^111In]In-PSMA-DB from the tail vein (n=3 each). Mice were euthanized 1, 4, 24, 48, 96, and 192 hours after administration. Thereafter, blood and each organ were recovered, and the mass and radioactivity of the organs were measured.
The percentage (% ID) of the radioactivity amount to the administered radioactivity amount (injected dose) is shown as the value (% ID/g) divided by the blood mass or the organ mass (g).
LNCaP tumor-implanted mice prepared by the same method as in Example 1-1 were administered a saline solution (241 kBq/100 μL) of [^111In]In-PtDA from the tail vein (n=3). Mice were euthanized 1, 24, and 48 hours after administration. Thereafter, blood and each organ were recovered, and the mass and radioactivity of the organs were measured.
LNCaP tumor-implanted mice prepared by the same method as in Example 1-1 were administered a saline solution (259 kBq/100 μL each) of each of the radiolabeled compounds in Examples 3-1 to 3-3 or Comparative Examples 2-1 to 2-2 from the tail vein (n=2 to 3). Mice were euthanized 1, 4, 24, 48, 96, and 192 hours after administration. Thereafter, blood and each organ were recovered, and the mass and radioactivity of the organs were measured.
as §1, with “LNCaP cells (4.3×10^6 cells/mouse) or” for “LNCaP cells (1.0×10^7 cells/mouse) or”, “PC-3 cells (3.3×10^6 cells/mouse) were” for “PC-3 cells (1.0×10^7 cells/mouse) were”, “shoulder of CB17/IcrJcl-Prkdc^scid mice under” for “shoulder of mice under”
Mice were euthanized 1, 4, 24, 48, 96, and 192 hours after administration. Thereafter, blood and each organ were recovered, and the mass and radioactivity of the organs were measured.
The results are shown in Table 12 (Mean value±standard deviation, n=3).

[2] = molecular target: human serum albumin (HSA) (Homo sapiens, UniProt P02768); assay: Evaluation of binding to albumin (HSA solution, PBS control); conditions: left to stand in HSA solution (45 mg/mL)
Sequence of human serum albumin (HSA) (P02768 25-609): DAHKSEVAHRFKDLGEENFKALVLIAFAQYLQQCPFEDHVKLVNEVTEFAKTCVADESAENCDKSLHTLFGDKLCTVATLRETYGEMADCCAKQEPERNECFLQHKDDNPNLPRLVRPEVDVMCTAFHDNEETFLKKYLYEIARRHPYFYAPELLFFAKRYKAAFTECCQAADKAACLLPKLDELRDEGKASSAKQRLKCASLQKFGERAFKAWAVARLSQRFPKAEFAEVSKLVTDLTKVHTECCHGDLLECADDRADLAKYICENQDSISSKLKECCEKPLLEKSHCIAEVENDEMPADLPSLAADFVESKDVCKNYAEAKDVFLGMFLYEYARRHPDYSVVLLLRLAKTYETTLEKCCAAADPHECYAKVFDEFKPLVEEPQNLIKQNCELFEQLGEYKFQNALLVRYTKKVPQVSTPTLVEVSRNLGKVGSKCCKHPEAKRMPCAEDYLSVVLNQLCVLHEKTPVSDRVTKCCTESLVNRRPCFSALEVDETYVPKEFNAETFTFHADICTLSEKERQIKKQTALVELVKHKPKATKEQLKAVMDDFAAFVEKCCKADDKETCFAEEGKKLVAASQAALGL
Method: Thereafter, the reaction liquids were added to a spin column (Sephadex G-100; manufactured by Cytiva), and centrifuged at 1500×g at 4° C. for 2 minutes. After separation, the radioactivity for each of the column and the eluate was measured with a gamma counter.
When a compound to be evaluated binds to albumin to form a composite, the compound passes through the column because of the increased molecular size.
As in Examples described above, PBS and human albumin were used to evaluate binding to albumin.
Thereafter, the reaction liquid was added to a spin column (Sephadex G-50; manufactured by Cytiva), and centrifuged at 1500×g at 4° C. for 2 minutes. After separation, the radioactivity of the column and the eluate was measured with a gamma counter.

Blood ([1]; 1 h after administration): 2.30 ± 0.28 % ID/g
Brain ([1]; 1 h after administration): 0.05 ± 0.00 % ID/g
Heart ([1]; 1 h after administration): 0.70 ± 0.03 % ID/g
Intestine ([1]; 1 h after administration): 0.47 ± 0.03 % ID/g
Kidney ([1]; 1 h after administration): 214 ± 53.0 % ID/g
LNCaP Tumor ([1]; 1 h after administration): 1.06 ± 0.21 % ID/g
Liver ([1]; 1 h after administration): 0.60 ± 0.07 % ID/g
Lung ([1]; 1 h after administration): 1.75 ± 0.18 % ID/g
Muscle ([1]; 1 h after administration): 0.28 ± 0.06 % ID/g
Pancreas ([1]; 1 h after administration): 0.57 ± 0.14 % ID/g
Spleen ([1]; 1 h after administration): 6.83 ± 1.70 % ID/g
Stomach (% ID) ([1]; 1 h after administration): 0.17 ± 0.02 % ID
Blood ([1]; 4 h after administration): 1.24 ± 0.15 % ID/g
Brain ([1]; 4 h after administration): 0.04 ± 0.00 % ID/g
Heart ([1]; 4 h after administration): 0.47 ± 0.08 % ID/g
Intestine ([1]; 4 h after administration): 0.66 ± 0.08 % ID/g
Kidney ([1]; 4 h after administration): 125 ± 89.2 % ID/g
LNCaP Tumor ([1]; 4 h after administration): 0.69 ± 0.30 % ID/g
Liver ([1]; 4 h after administration): 0.69 ± 0.05 % ID/g
Lung ([1]; 4 h after administration): 1.03 ± 0.13 % ID/g
Muscle ([1]; 4 h after administration): 0.11 ± 0.04 % ID/g
Pancreas ([1]; 4 h after administration): 0.50 ± 0.13 % ID/g
Spleen ([1]; 4 h after administration): 4.76 ± 1.17 % ID/g
Stomach (% ID) ([1]; 4 h after administration): 0.11 ± 0.03 % ID
Blood ([1]; 24 h after administration): 0.20 ± 0.02 % ID/g
Brain ([1]; 24 h after administration): 0.02 ± 0.01 % ID/g
Heart ([1]; 24 h after administration): 0.21 ± 0.01 % ID/g
Intestine ([1]; 24 h after administration): 0.32 ± 0.02 % ID/g
Kidney ([1]; 24 h after administration): 13.5 ± 0.43 % ID/g
LNCaP Tumor ([1]; 24 h after administration): 0.28 ± 0.02 % ID/g
Liver ([1]; 24 h after administration): 0.69 ± 0.05 % ID/g
Lung ([1]; 24 h after administration): 0.34 ± 0.05 % ID/g
Muscle ([1]; 24 h after administration): 0.10 0.00 % ID/g
Pancreas ([1]; 24 h after administration): 0.28 ± 0.03 % ID/g
Spleen ([1]; 24 h after administration): 2.74 ± 0.07 % ID/g
Stomach (% ID) ([1]; 24 h after administration): 0.05 ± 0.00 % ID
Blood ([1]; 48 h after administration): 0.09 ± 0.03 % ID/g
Brain ([1]; 48 h after administration): 0.03 ± 0.01 % ID/g
Heart ([1]; 48 h after administration): 0.18 ± 0.05 % ID/g
Intestine ([1]; 48 h after administration): 0.32 ± 0.06 % ID/g
Kidney ([1]; 48 h after administration): 25.2 ± 17.1 % ID/g
LNCaP Tumor ([1]; 48 h after administration): 0.30 ± 0.11 % ID/g
Liver ([1]; 48 h after administration): 0.80 ± 0.13 % ID/g
Lung ([1]; 48 h after administration): 0.32 ± 0.04 % ID/g
Muscle ([1]; 48 h after administration): 0.10 ± 0.03 % ID/g
Pancreas ([1]; 48 h after administration): 0.38 ± 0.06 % ID/g
Spleen ([1]; 48 h after administration): 2.62 ± 0.79 % ID/g
Stomach (% ID) ([1]; 48 h after administration): 0.09 ± 0.06 % ID
Blood ([1]; 96 h after administration): 0.06 ± 0.02 % ID/g
Brain ([1]; 96 h after administration): 0.03 ± 0.00 % ID/g
Heart ([1]; 96 h after administration): 0.28 ± 0.06 % ID/g
Intestine ([1]; 96 h after administration): 0.16 ± 0.07 % ID/g
Kidney ([1]; 96 h after administration): 15.1 ± 4.76 % ID/g
LNCaP Tumor ([1]; 96 h after administration): 0.32 ± 0.09 % ID/g
Liver ([1]; 96 h after administration): 0.77 ± 0.07 % ID/g
Lung ([1]; 96 h after administration): 0.39 ± 0.06 % ID/g
Muscle ([1]; 96 h after administration): 0.09 ± 0.03 % ID/g
Pancreas ([1]; 96 h after administration): 0.32 ± 0.02 % ID/g
Spleen ([1]; 96 h after administration): 2.47 ± 0.60 % ID/g
Stomach (% ID) ([1]; 96 h after administration): 0.07 ± 0.03 % ID
Blood ([1]; 192 h after administration): 0.01 % ID/g
Brain ([1]; 192 h after administration): 0.03 % ID/g
Heart ([1]; 192 h after administration): 0.22 % ID/g
Intestine ([1]; 192 h after administration): 0.06 % ID/g
Kidney ([1]; 192 h after administration): 2.79 % ID/g
LNCaP Tumor ([1]; 192 h after administration): 0.15 % ID/g
Liver ([1]; 192 h after administration): 0.63 % ID/g
Lung ([1]; 192 h after administration): 0.20 % ID/g
Muscle ([1]; 192 h after administration): 0.07 % ID/g
Pancreas ([1]; 192 h after administration): 0.37 % ID/g
Spleen ([1]; 192 h after administration): 1.05 % ID/g
Stomach (% ID) ([1]; 192 h after administration): 0.02 % ID
radioactivity in the eluate (in words) [2]: low
Structure (SMILES): O=C([O-])CN(CCN(CCc1ccc(NC(=O)CCCCCNC(=O)CCC(=O)NCCCC[C@H](NC(=O)N[C@@H](CCC(=O)O)C(=O)O)C(=O)O)cc1)CCN(CC(=O)[O-])Cc1cccc(C(=O)[O-])n1)Cc1cccc(C(=O)[O-])n1.[111In+3] [[^111In]In-Neunpa-1, reference compound]
